# Patent publication US9156796B2, “Benzoimidazole-carboxylic acid amide derivatives as APJ receptor modulators” (SANOFI, priority 2013, dated 2015)
# Target: T1, human apelin receptor (Homo sapiens, UniProt P35414)
# T1 construct: expressed in transfected cells
# T1 sequence (P35414 1-380): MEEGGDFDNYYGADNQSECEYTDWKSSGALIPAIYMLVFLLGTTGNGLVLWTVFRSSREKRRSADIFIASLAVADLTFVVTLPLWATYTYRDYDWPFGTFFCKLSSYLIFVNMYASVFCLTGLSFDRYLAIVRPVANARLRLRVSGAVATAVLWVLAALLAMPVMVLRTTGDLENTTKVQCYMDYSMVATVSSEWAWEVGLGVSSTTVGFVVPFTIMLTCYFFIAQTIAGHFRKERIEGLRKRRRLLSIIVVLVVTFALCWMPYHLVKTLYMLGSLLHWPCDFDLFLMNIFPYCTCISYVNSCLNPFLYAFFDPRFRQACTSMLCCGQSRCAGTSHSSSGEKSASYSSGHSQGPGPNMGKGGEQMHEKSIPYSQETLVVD
# Experiment: Determination of agonism on the human apelin receptor by a calcium fluorescence assay (FLIPR)
# Type: cell-based
# Settings: EC50 (APJ agonism), HEK293 cells stably transfected with human apelin receptor and Giaq protein, Fluo-4 calcium fluorescence
# Outline: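 HEK293 cells stably co-expressing human apelin receptor and promiscuous Giaq, loaded 1 h at 37 °C with Fluo-4 (4 μM) in probenecid-containing Hepes buffer, pH 7.4. Compounds, at least 7 concentrations in triplicate, added in FLIPR Tetra; peak calcium fluorescence normalized to 1 μM apelin-13 as 100% to derive EC50.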
row,Compound,EC50 [nM]
1,"CCCC[C@@H](CO)NC(=O)c1ccc2c(c1)nc(CC1CCCC1)n2C(CC)CC [Example 184, 2-Cyclopentylmethyl-1-(1-ethyl-propyl)-1H-benzoimidazole-5-carboxylic acid ((S)-1-hydroxymethyl-pentyl)-amide]",2900
2,"CCC(CC)n1c(CC2CCCC2)nc2cc(C(=O)N[C@H](CO)CCSC)ccc21 [Example 178, 2-Cyclopentylmethyl-1-(1-ethyl-propyl)-1H-benzoimidazole-5-carboxylic acid ((S)-1-hydroxymethyl-3-methylsulfanyl-propyl)-amide]",17400

# Same assay, conditions: HEK293 cells stably transfected with human apelin receptor and Giaq protein, Fluo-4 calcium fluorescence, read-out: EC50 (APJ agonism)
row,Compound,EC50 [nM]
1,"CCC(CC)n1c(Cc2cccs2)nc2cc(C(=O)N[C@@H](CO)CC(C)C)ccc21 [Example 191, 1-(1-Ethyl-propyl)-2-thiophen-2-ylmethyl-1H-benzoimidazole-5-carboxylic acid ((R)-1-hydroxymethyl-3-methyl-butyl)-amide]",6300
2,"CCC(CC)n1c(Cc2cccs2)nc2cc(C(=O)N[C@@H](CC(C)C)C(=O)NC3CCN(Cc4ccccc4)C3)ccc21 (stereo partly drawn) [Example 319, 1-(1-Ethyl-propyl)-2-thiophen-2-ylmethyl-1H-benzoimidazole-5-carboxylic acid [(S)-1-(1-benzyl-pyrrolidin-3-ylcarbamoyl)-3-methyl-butyl]-amide]",1520
3,"CCC(CC)n1c(Cc2cccs2)nc2cc(C(=O)NC(CC(C)C)c3nc(C)c(C)s3)ccc21 (centres unmarked) [Example 480, 1-(1-Ethyl-propyl)-2-thiophen-2-ylmethyl-1H-benzoimidazole-5-carboxylic acid [1-(4,5-dimethyl-thiazol-2-yl)-3-methyl-butyl]-amide]",20000
4,"CCC(CC)n1c(Cc2cccs2)nc2cc(C(=O)NC(CC(=O)O)CC3CCCCC3)ccc21 (centres unmarked) [Example 46, 4-Cyclohexyl-3-{[1-(1-ethyl-propyl)-2-thiophen-2-ylmethyl-1H-benzoimidazole-5-carbonyl]-amino}-butyric acid]",112
5,"CC1CCC(NC(=O)c2ccc3c(c2)nc(Cc2cccs2)n3[C@@H]2CCCC[C@H]2C)(C(=O)O)CC1 (stereo partly drawn) [Example 35, 4-Methyl-1-{[1-((1R,2R)-2-methyl-cyclohexyl)-2-thiophen-2-ylmethyl-1H-benzoimidazole-5-carbonyl]-amino}-cyclohexanecarboxylic acid]",291
6,"CCC(CC)n1c(Cc2cccs2)nc2cc(C(=O)N[C@@H](CO)C3CCCCC3)ccc21 [Example 203, 1-(1-Ethyl-propyl)-2-thiophen-2-ylmethyl-1H-benzoimidazole-5-carboxylic acid ((R)-1-cyclohexyl-2-hydroxy-ethyl)-amide]",24700
7,"CCCCOC[C@H](CC(C)C)NC(=O)c1ccc2c(c1)nc(Cc1cccs1)n2C(CC)CC [Example 210, 1-(1-Ethyl-propyl)-2-thiophen-2-ylmethyl-1H-benzoimidazole-5-carboxylic acid ((S)-1-butoxymethyl-3-methyl-butyl)-amide]",10200
8,"CCCC(NC(=O)c1ccc2c(c1)nc(Cc1cccs1)n2C(CC)CC)c1ccccn1 (centres unmarked) [Example 477, 1-(1-Ethyl-propyl)-2-thiophen-2-ylmethyl-1H-benzoimidazole-5-carboxylic acid (1-pyridin-2-yl-butyl)-amide]",2720
9,"CCC(CC)n1c(Cc2cccs2)nc2cc(C(=O)N[C@@H](CC(C)C)C(=O)NCCCN3CCN(c4ccc(OC)cc4)CC3)ccc21 [Example 279, 1-(1-Ethyl-propyl)-2-thiophen-2-ylmethyl-1H-benzoimidazole-5-carboxylic acid ((S)-1-{3-[4-(4-methoxy-phenyl)-piperazin-1-yl]-propylcarbamoyl}-3-methyl-butyl)-amide]",2270
10,"CCC(CC)n1c(Cc2cccs2)nc2cc(C(=O)N[C@@H](CC(C)C)C(=O)N3CCC(N4CCN(C)CC4)CC3)ccc21 [Example 280, 1-(1-Ethyl-propyl)-2-thiophen-2-ylmethyl-1H-benzoimidazole-5-carboxylic acid {(S)-3-methyl-1-[4-(4-methyl-piperazin-1-yl)-piperidine-1-carbonyl]-butyl}-amide]",219
11,"CCC(CC)n1c(Cc2cccs2)nc2cc(C(=O)NC(CC3CCC(C)(C)CC3)C(=O)O)ccc21 (single isomer, unassigned) [Example 444]",3910
12,"CCC(CC)n1c(CC2CCCO2)nc2cc(C(=O)N[C@H](CC(=O)O)CC(C)C)ccc21 (stereo partly drawn) [Example 160, (S)-3-{[1-(1-Ethyl-propyl)-2-(tetrahydro-furan-2-ylmethyl)-1H-benzoimidazole-5-carbonyl]-amino}-5-methyl-hexanoic acid]",820
13,"CCC(CC)n1c(Cc2cccs2)nc2cc(C(=O)N[C@@H](CC(C)C)C(=O)N3CCSCC3)ccc21 [Example 217, 1-(1-Ethyl-propyl)-2-thiophen-2-ylmethyl-1H-benzoimidazole-5-carboxylic acid [(S)-3-methyl-1-(thiomorpholine-4-carbonyl)-butyl]-amide]",2210
14,"CCCC(CCO)NC(=O)c1ccc2c(c1)nc(Cc1cccs1)n2C(CC)CC (single isomer, unassigned) [Example 471]",5020
15,"CC(C)C[C@H](NC(=O)c1ccc2c(c1)nc(Cc1cccs1)n2C1CCCC1)C(=O)O [Example 110, (S)-2-[(1-Cyclopentyl-2-thiophen-2-ylmethyl-1H-benzoimidazole-5-carbonyl)-amino]-4-methyl-pentanoic acid]",2030
16,"CCC(CC)n1c(Cc2ccoc2)nc2cc(C(=O)N[C@@H](CC(C)C)C(=O)O)ccc21 [Example 118, (S)-2-{[1-(1-Ethyl-propyl)-2-furan-3-ylmethyl-1H-benzoimidazole-5-carbonyl]-amino}-4-methyl-pentanoic acid]",222
17,"CC(C)C[C@H](NC(=O)c1ccc2c(c1)nc(Cc1cccs1)n2C1CCCCC1C)C(=O)N(C)C (stereo partly drawn) [Example 216, 1-(2-Methyl-cyclohexyl)-2-thiophen-2-ylmethyl-1H-benzoimidazole-5-carboxylic acid ((S)-1-dimethyl-carbamoyl-3-methyl-butyl)-amide]",1730
18,"CCC(C)[C@H](NC(=O)c1ccc2c(c1)nc(Cc1cccs1)n2C(CC)CC)C(=O)O (stereo partly drawn) [Example 121, (S)-2-{[1-(1-Ethyl-propyl)-2-thiophen-2-ylmethyl-1H-benzoimidazole-5-carbonyl]-amino}-3-methyl-pentanoic acid]",74
19,"C[C@@H]1CCCC[C@H]1n1c(Cc2cccs2)nc2cc(C(=O)NC(CC(=O)O)C3CCCCC3)ccc21 (stereo partly drawn) [Example 57, 3-Cyclohexyl-3-{[1-((1R,2R)-2-methyl-cyclohexyl)-2-thiophen-2-ylmethyl-1H-benzoimidazole-5-carbonyl]-amino}-propionic acid]",475
20,"CCC(CC)n1c(Cc2cccs2)nc2cc(C(=O)NC(C)(CC(C)C)C(=O)O)ccc21 (single isomer, unassigned) [Example 441]",1520
21,"CC(C)C[C@H](NC(=O)c1ccc2c(c1)nc(Cc1cccs1)n2[C@@H]1CCCC[C@H]1C)[C@@H](O)CC(=O)O [Example 78, (3S,4S)-3-Hydroxy-6-methyl-4-{[1-((1R,2R)-2-methyl-cyclohexyl)-2-thiophen-2-ylmethyl-1H-benzoimidazole-5-carbonyl]-amino}-heptanoic acid]",101
22,"CCC(CC)n1c(Cc2cccs2)nc2cc(C(=O)N[C@@H](CC(C)C)C(=O)N3CCN(c4ccccc4)CC3)ccc21 [Example 235, 1-(1-Ethyl-propyl)-2-thiophen-2-ylmethyl-1H-benzoimidazole-5-carboxylic acid [(S)-3-methyl-1-(4-phenyl-piperazine-1-carbonyl)-butyl]-amide]",1300
23,"CCC(CC)n1c(Cc2cccs2)nc2cc(C(=O)N[C@@H](CC(=O)O)CC(C)C)ccc21 [Example 48, (R)-3-{[1-(1-Ethyl-propyl)-2-thiophen-2-ylmethyl-1H-benzoimidazole-5-carbonyl]-amino}-5-methyl-hexanoic acid]",4190
24,"CCC(CC)n1c(Cc2ccccc2)nc2cc(C(=O)N[C@H](CC(=O)O)CC(C)C)ccc21 [Example 157, (S)-3-{[2-Benzyl-1-(1-ethyl-propyl)-1H-benzoimidazole-5-carbonyl]-amino}-5-methyl-hexanoic acid]",10000
25,"CCC(CC)n1c(Cc2cccs2)nc2cc(C(=O)N[C@@H](Cc3ccc(Cl)c(Cl)c3)C(=O)O)ccc21 [Example 32, (S)-3-(3,4-Dichloro-phenyl)-2-{[1-(1-ethyl-propyl)-2-thiophen-2-ylmethyl-1H-benzoimidazole-5-carbonyl]-amino}-propionic acid]",4570
26,"CCC(CC)n1c(Cc2cccs2)nc2cc(C(=O)N[C@H](CO)[C@@H](C)CC)ccc21 [Example 194, 1-(1-Ethyl-propyl)-2-thiophen-2-ylmethyl-1H-benzoimidazole-5-carboxylic acid ((1S,2S)-1-hydroxymethyl-2-methyl-butyl)-amide]",960
27,"CCC(CC)n1c(Cc2cccs2)nc2cc(C(=O)N[C@@H](CC(C)C)C(=O)NCCC#N)ccc21 [Example 404, 1-(1-Ethyl-propyl)-2-thiophen-2-ylmethyl-1H-benzoimidazole-5-carboxylic acid [(S)-1-(2-cyano-ethylcarbamoyl)-3-methyl-butyl]-amide]",788
